From PMC10189894 (Chemical Science, 2023) come the findings set out here.

A short description of this experiment: Autohydrolytic cascade reaction. It is filed as physicochemical. Conditions: EDTA at 10–200 μM; Fig. S9E.

For the molecule `O=C(O)CN(CCN(CC(=O)O)CC(=O)O)CC(=O)O` [EDTA], the “effect on the ACR” value is on record as “inhibitory effect”.
